Results taken from patent publication US20250235543A1, “MODIFIED PROTEINS AND PROTEIN DEGRADERS” (Cullgen (Shanghai), Inc., priority 2021, published 2025).
Like-named read-outs stand apart in the source and are kept apart here.

Assays:
CDK4 = molecular target: T1, CDK4 (Homo sapiens, UniProt P11802); test: CDK4 percentage degradation in Calu-1 cells (immunoblotting); format: cell-based; conditions: for inhibition at 0.2 µM: read-out: CDK4 Degradation (200 nM)
T1 construct: endogenous in cells; host or cells: Calu-1
In short: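 CDK4 degradation was measured by immunoblotting. Cells were washed in cold PBS and lysed in RIPA buffer with inhibitors for 30 min at 4° C., then spun at 13,000 rpm to clear. After BCA protein determination, lysates were heated at 99° C. for 5 min in Laemmli buffer, resolved on SDS-PAGE, imaged on a ChemiDoc MP with ECL substrate, and band intensities quantified.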

cyclin D1 = test: Cyclin D1 percentage degradation in Calu-1 cells (immunoblotting); format: cell-based; conditions: 16 hours
In short: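 Cyclin D1 degradation was assessed by western blot. Clarified lysates, obtained by RIPA lysis with inhibitors and centrifugation at 13,000 rpm, were normalized by BCA protein assay and separated by SDS-PAGE. Bands were detected with Western ECL Substrate on a Bio-Rad ChemiDoc MP Imaging system and quantified in Image Lab software to derive percentage degradation.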

T1 sequence (P11802 2-303 limits assumed): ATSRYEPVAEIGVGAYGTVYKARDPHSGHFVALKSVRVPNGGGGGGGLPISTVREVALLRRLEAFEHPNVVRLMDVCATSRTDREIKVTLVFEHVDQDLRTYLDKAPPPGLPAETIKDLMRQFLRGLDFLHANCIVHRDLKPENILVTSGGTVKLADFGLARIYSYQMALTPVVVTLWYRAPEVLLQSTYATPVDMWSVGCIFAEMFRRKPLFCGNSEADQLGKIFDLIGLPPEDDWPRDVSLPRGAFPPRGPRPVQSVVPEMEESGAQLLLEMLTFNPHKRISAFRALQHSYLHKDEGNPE
T1 sequence (P24385 whole entry partner): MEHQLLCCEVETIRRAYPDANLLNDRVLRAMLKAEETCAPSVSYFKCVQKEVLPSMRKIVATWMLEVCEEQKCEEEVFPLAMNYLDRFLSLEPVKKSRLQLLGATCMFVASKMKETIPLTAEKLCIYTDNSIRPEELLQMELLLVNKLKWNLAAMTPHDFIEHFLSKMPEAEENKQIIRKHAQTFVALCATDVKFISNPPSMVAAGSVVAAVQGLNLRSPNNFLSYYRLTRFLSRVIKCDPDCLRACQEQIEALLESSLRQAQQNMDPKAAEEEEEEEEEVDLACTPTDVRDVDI
T1 sequence (Q16531 2-1140 limits assumed, further chain): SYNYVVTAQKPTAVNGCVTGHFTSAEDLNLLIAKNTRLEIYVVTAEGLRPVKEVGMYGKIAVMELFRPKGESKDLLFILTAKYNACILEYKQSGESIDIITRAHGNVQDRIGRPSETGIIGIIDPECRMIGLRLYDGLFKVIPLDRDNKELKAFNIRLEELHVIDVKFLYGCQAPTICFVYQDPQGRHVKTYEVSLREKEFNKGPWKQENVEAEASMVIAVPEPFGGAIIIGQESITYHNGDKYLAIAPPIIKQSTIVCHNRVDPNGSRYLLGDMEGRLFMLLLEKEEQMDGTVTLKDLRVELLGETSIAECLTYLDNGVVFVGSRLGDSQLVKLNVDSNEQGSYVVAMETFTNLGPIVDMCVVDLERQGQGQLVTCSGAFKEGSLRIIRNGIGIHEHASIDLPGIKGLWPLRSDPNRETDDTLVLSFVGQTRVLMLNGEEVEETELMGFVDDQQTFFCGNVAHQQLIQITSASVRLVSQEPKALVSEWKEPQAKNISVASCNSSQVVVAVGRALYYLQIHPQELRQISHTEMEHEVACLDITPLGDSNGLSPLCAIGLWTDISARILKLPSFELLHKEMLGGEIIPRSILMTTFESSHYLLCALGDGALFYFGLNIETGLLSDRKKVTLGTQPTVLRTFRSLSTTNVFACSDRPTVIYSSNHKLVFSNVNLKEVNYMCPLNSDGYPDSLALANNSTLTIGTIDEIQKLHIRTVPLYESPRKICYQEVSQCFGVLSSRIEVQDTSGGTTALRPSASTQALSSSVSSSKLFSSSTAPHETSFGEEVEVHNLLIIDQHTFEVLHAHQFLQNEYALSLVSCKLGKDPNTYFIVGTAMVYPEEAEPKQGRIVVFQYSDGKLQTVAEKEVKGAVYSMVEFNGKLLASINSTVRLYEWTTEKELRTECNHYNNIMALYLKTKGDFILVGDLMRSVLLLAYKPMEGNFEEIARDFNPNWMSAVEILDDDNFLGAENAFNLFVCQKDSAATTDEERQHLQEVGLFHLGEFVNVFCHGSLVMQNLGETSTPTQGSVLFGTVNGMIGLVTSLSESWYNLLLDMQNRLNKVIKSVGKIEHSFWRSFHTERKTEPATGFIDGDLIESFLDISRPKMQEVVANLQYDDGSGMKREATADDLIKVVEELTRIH

Row | Compound | inhibition at 0.2 µM (CDK4; Calu-1 cells, 200 nM, 16 hours) | inhibition at 10 µM (CDK4; Calu-1 cells, 10 μM, 16 hours, read-out: CDK4 Degradation (10 μM)) | CyclinD1 Degradation (200 nM) (cyclin D1) | inhibition at 0.2 µM (CDK4; Calu-1, 16 h) | CyclinD1 Degradation (10 μM) (cyclin D1; 10 μM)
1 | CC(=O)c1c(C)c2cnc(Nc3ccc(N4CCN(C(=O)CCOCCOCCOCCOCCOCCOCCC(=O)Nc5ccccc5C(=O)Nc5nc(C)c(C)s5)CC4)cn3)nc2n(C2CCCC2)c1=O [CPD-182, 22-(4-(6-((6-Acetyl-8-cyclopentyl-5-methyl-7-oxo-7,8-dihydropyrido[2,3-d]pyrimidin-2-yl)amino)pyridin-3-yl)piperazin-1-yl)-N-(2-((4,5-dimethylthiazol-2-yl)carbamoyl)phenyl)-22-oxo-4,7,10,13,16,19-hexaoxadocosanamide] | – | – | D (protein percentage degradation <30%) | < 30% | –
2 | CC(=O)c1c(C)c2cnc(Nc3ccc(N4CCN(CC(=O)NCCC(=O)Nc5ccccc5C(=O)Nc5nc(C)c(C)s5)CC4)cn3)nc2n(C2CCCC2)c1=O [CPD-146, 2-(3-(2-(4-(6-((6-Acetyl-8-cyclopentyl-5-methyl-7-oxo-7,8-dihydropyrido[2,3-d]pyrimidin-2-yl)amino)pyridin-3-yl)piperazin-1-yl)acetamido)propanamido)-N-(4,5-dimethylthiazol-2-yl)benzamide] | – | – | D (protein percentage degradation <30%) | < 30% | –
3 | Cc1nc(NC(=O)c2ccccc2NC(=O)CCNC(=O)CN2CCN(c3ccc(Nc4ncc(F)c(-c5cc(F)c6nc(C)n(C(C)C)c6c5)n4)nc3)CC2)sc1C [CPD-301, N-(4,5-Dimethylthiazol-2-yl)-2-(3-(2-(4-(6-((5-fluoro-4-(4-fluoro-1-isopropyl-2-methyl-1H-benzo[d]imidazol-6-yl)pyrimidin-2-yl)amino)pyridin-3-yl)piperazin-1-yl)acetamido)propanamido)benzamide] | – | < 30% | – | – | D (protein percentage degradation < 30%)
4 | CC(=O)c1c(C)c2cnc(Nc3ccc(N4CCN(CC(=O)NCCOCCOCCOCCOCCOCCNc5ccc(C(=O)Nc6nc(-c7ccccc7)cs6)c(C)c5)CC4)cn3)nc2n(C2CCCC2)c1=O [CPD-007, 4-((1-(4-(6-((6-Acetyl-8-cyclopentyl-5-methyl-7-oxo-7,8-dihydropyrido[2,3-d]pyrimidin-2-yl)amino)pyridin-3-yl)piperazin-1-yl)-2-oxo-6,9,12,15,18-pentaoxa-3-azaicosan-20-yl)amino)-2-methyl-N-(4-phenylthiazol-2-yl)benzamide] | < 30% | – | D (protein percentage degradation <30%) | – | –
5 | CC(=O)c1c(C)c2cnc(Nc3ccc(N4CCN(CC(=O)NCCOCCOCCOCCOCCOCCNc5ccc(C(=O)Nc6cc(C)n(C)n6)c(C)c5)CC4)cn3)nc2n(C2CCCC2)c1=O [CPD-050, 4-((1-(4-(6-((6-Acetyl-8-cyclopentyl-5-methyl-7-oxo-7,8-dihydropyrido[2,3-d]pyrimidin-2-yl)amino)pyridin-3-yl)piperazin-1-yl)-2-oxo-6,9,12,15,18-pentaoxa-3-azaicosan-20-yl)amino)-N-(1,5-dimethyl-1H-pyrazol-3-yl)-2-methylbenzamide] | > 80% | – | A (protein percentage degradation >=80%) | – | –
6 | CC(=O)c1c(C)c2cnc(Nc3ccc(N4CCN(CC(=O)NCCOCCOCCC(=O)Nc5ccccc5C(=O)Nc5cc[nH]n5)CC4)cn3)nc2n(C2CCCC2)c1=O [CPD-073, 2-(3-(2-(2-(2-(4-(6-((6-Acetyl-8-cyclopentyl-5-methyl-7-oxo-7,8-dihydropyrido[2,3-d]pyrimidin-2-yl)amino)pyridin-3-yl)piperazin-1-yl)acetamido)ethoxy)ethoxy)propanamido)-N-(1H-pyrazol-3-yl)benzamide] | 50 to 80% | – | D (protein percentage degradation <30%) | – | –

Second part, led by results:

Row | inhibition at 0.2 µM (CDK4; Calu-1 cells, 200 nM, 16 hours) | inhibition at 10 µM (CDK4; Calu-1 cells, 10 μM, 16 hours, read-out: CDK4 Degradation (10 μM)) | Compound | CyclinD1 Degradation (200 nM) (cyclin D1) | inhibition at 0.2 µM (CDK4; Calu-1, 16 h) | CyclinD1 Degradation (10 μM) (cyclin D1; 10 μM)
7 | 30 to 50% | – | CC(=O)c1c(C)c2cnc(Nc3ccc(N4CCN(CC(=O)NCCCCCCCCCNC(=O)CNc5ccc(C(=O)Nc6ncc(C)s6)c(C)c5)CC4)cn3)nc2n(C2CCCC2)c1=O [CPD-035] | C (protein percentage degradation <50%, and >=30%) | – | –
8 | 50 to 80% | – | CC(=O)c1c(C)c2cnc(Nc3ccc(N4CCN(CC(=O)NCCCCCNc5cc(F)ccc5C(=O)Nc5ccc(N(C)C)nn5)CC4)cn3)nc2n(C2CCCC2)c1=O [CPD-372, 2-((5-(2-(4-(6-((6-Acetyl-8-cyclopentyl-5-methyl-7-oxo-7,8-dihydropyrido[2,3-d]pyrimidin-2-yl)amino)pyridin-3-yl)piperazin-1-yl)acetamido)pentyl)amino)-N-(6-(dimethylamino)pyridazin-3-yl)-4-fluorobenzamide] | A (protein percentage degradation >=80%) | – | –
9 | 50 to 80% | – | CC(=O)c1c(C)c2cnc(Nc3ccc(N4CCN(CC(=O)NCCCCCCCC(=O)Nc5ccccc5C(=O)Nc5nc(C)c(C)s5)CC4)cn3)nc2n(C2CCCC2)c1=O [CPD-136, 2-(8-(2-(4-(6-((6-Acetyl-8-cyclopentyl-5-methyl-7-oxo-7,8-dihydropyrido[2,3-d]pyrimidin-2-yl)amino)pyridin-3-yl)piperazin-1-yl)acetamido)octanamido)-N-(4,5-dimethylthiazol-2-yl)benzamide] | A (protein percentage degradation >=80%) | – | –
10 | < 30% | – | CC(=O)c1c(C)c2cnc(Nc3ccc(N4CCN(CC(=O)NCCOCCOCCNC(=O)CNc5ccc(C(=O)Nc6ncc(C)s6)c(C)c5)CC4)cn3)nc2n(C2CCCC2)c1=O [CPD-017, 4-((14-(4-(6-((6-Acetyl-8-cyclopentyl-5-methyl-7-oxo-7,8-dihydropyrido[2,3-d]pyrimidin-2-yl)amino)pyridin-3-yl)piperazin-1-yl)-2,13-dioxo-6,9-dioxa-3,12-diazatetradecyl)amino)-2-methyl-N-(5-methylthiazol-2-yl)benzamide] | D (protein percentage degradation <30%) | – | –
11 | 50 to 80% | – | CC(=O)c1c(C)c2cnc(Nc3ccc(N4CCN(CC(=O)NCCOCCOCCC(=O)Nc5c(C(=O)Nc6ccc(C)cn6)ccc6[nH]ncc56)CC4)cn3)nc2n(C2CCCC2)c1=O [CPD-359] | A (protein percentage degradation >=80%) | – | –
12 | > 80% | – | CC(=O)c1c(C)c2cnc(Nc3ccc(N4CCN(CC(=O)NCCCCCCCNc5cc(C)ccc5C(=O)Nc5nc(C)c(C)s5)CC4)cn3)nc2n(C2CCCC2)c1=O [CPD-368, 2-((7-(2-(4-(6-((6-Acetyl-8-cyclopentyl-5-methyl-7-oxo-7,8-dihydropyrido[2,3-d]pyrimidin-2-yl)amino)pyridin-3-yl)piperazin-1-yl)acetamido)heptyl)amino)-N-(4,5-dimethylthiazol-2-yl)-4-methylbenzamide] | A (protein percentage degradation >=80%) | – | –
13 | < 30% | – | CC(=O)c1c(C)c2cnc(Nc3ccc(N4CCN(CC(=O)NCCCCCCNc5ccc(C)c(C(=O)Nc6nc(C)c(C)s6)c5)CC4)cn3)nc2n(C2CCCC2)c1=O [CPD-094, 5-((6-(2-(4-(6-((6-Acetyl-8-cyclopentyl-5-methyl-7-oxo-7,8-dihydropyrido[2,3-d]pyrimidin-2-yl)amino)pyridin-3-yl)piperazin-1-yl)acetamido)hexyl)amino)-N-(4,5-dimethylthiazol-2-yl)-2-methylbenzamide] | D (protein percentage degradation <30%) | – | –
